Measured values as given in US10676501B2, “Hydrogel materials incorporating eluting ceragenin compound” (BRIGHAM YOUNG UNIVERSITY, priority 2011, dated 2020).
≈ marks a conversion by molar mass, not a printed value.

Key:
[1] = Elution of CSA-138 from contact lenses without bacteria, quantified by scintillation counting; type: physicochemical
Description: To decrease the detection limit for CSA-138, we prepared a radiolabeled version of CSA-138 (CSA-138T2), incorporated it into contact lenses, and quantified its elution from lenses using scintillation counting.
Lenses containing 1% CSA-138 were stored in 0.5 mL phosphate buffered saline (PBS) prior to testing. One set of lenses was autoclaved for 45 min before elution studies were performed. For elution studies, lenses were suspended in 2 ml aliquots of PBS, 10% TSB growth medium, 10% TSB growth medium containing 10^6 CFU of Staphylococcus aureus, or 10% TSB growth medium containing 10^6 CFU of Pseudomonas aeruginosa. Corresponding aliquots were exchanged every 24 h, including bacterial inocula. Samples were removed every 24 h and analyzed for the presence of CSA-138 using scintillation counting. A standard curve was generated to correlate counts per minute to concentration of CSA-138. All experiments were performed in triplicate.

[2] = Elution of CSA-138 from contact lens hydrogel, quantified by LC/MS; type: physicochemical; conditions: lenses with CSA-138 incorporated at 1%; LC/MS detection limit about 2 μg/ml
Description: To better understand the mechanism by which ceragenin compounds can be eluted from a hydrogel to prevent bacterial colonization, we determined the rate at which CSA-138 elutes from a hydrogel suitable for use in contact lenses. To quantify the amount of ceragenin eluting from the hydrogel, we used LC/MS using a mass-labeled internal standard. However, this method only gave detection limits of about 2 μg/ml, and we were able to effectively kill bacteria at constant elution rates below the detection limit.

S. aureus [3] = assay: MIC against S. aureus; type: cell-based
P. aeruginosa [4] = assay: MIC against P. aeruginosa; type: cell-based
S. aureus [5] = conditions: elution from lenses, inocula 10^6 CFU, consecutive days; cited from earlier work
P. aeruginosa [6] = conditions: elution from lenses, inocula 10^6 CFU; cited from earlier work

elution profile in 10% TSB in PBS ([1]; 10% TSB in PBS, compared with PBS (FIG. 5)) | SMILES | time until elution fell below detection limits [2] | initial amount of material that eluted ([1]; lenses autoclaved 45 min before the study, compared with non-autoclaved (FIG. 4)) | elution on the first day ([1]; lenses containing 1% CSA-138 in 2 ml PBS, day 1 (FIG. 3)) | MIC (S. aureus [3]) | MIC (P. aeruginosa [4]) | duration for which colonization is prevented (S. aureus [5]) | duration for which colonization is prevented (P. aeruginosa [6])
elution decreased | CCCCCCCCNCCC[C@@H](C)[C@H]1CC[C@H]2[C@@H]3[C@H](OCCCN)C[C@@H]4C[C@H](OCCCN)CC[C@]4(C)[C@H]3C[C@H](OCCCN)[C@]12C [CSA-13] | – | – | – | – | – | – | –
– | CCCCCCCCCCCCCNCCC[C@@H](C)[C@H]1CC[C@H]2[C@@H]3[C@H](OCCCN)C[C@@H]4C[C@H](OCCCN)CC[C@]4(C)[C@H]3C[C@H](OCCCN)[C@]12C [CSA-138] | five | decreased somewhat | about 2.2 μg/ml | 0.5 µg/mL (≈ 0.669 µM) | 1.0 µg/mL (≈ 1.34 µM) | 30 days | 19 days
